From US11999727B2 (Tango Therapeutics, Inc., priority 2020, dated 2024) come the findings set out here.

Experiment [1] addresses T1, PRMT5 (Homo sapiens, UniProt O14744).
T1 construct: purchased Viva (custom protein)
In words: PRMT5 biochemical IC50 assay with SAM as cofactor. As to conditions: PRMT5, SAM as cofactor; read-out: SAM IC50.

Experiment [2] addresses T1, PRMT5. In words: PRMT5 biochemical IC50 assay with no cofactor. The conditions noted are these: PRMT5, no cofactor. An excerpt: Table 1 indicates IC50 values (μM) against PRMT5 for exemplary compounds in the presence of SAM as cofactor, with no cofactor, and with MTA as cofactor, respectively (columns 4-6). […] Ki values can be calculated from the IC50 values as described in the Examples section. As detailed in the Examples section, for the assay performed in the presence of SAM, IC50=Ki×1.5 (Ki=IC50/1.5).

The target in experiment [3] is T1, PRMT5. Kind of experiment: PRMT5 biochemical IC50 assay with MTA as cofactor. The conditions noted are these: PRMT5, MTA as cofactor; read-out: MTA IC50.
Experiment [4] relates to HAP1 MTAP-intact cell line. Kind of experiment: SDMA in-cell western assay, HAP1 MTAP-intact. Type of experiment: cell-based. As to conditions: Homo sapiens, HAP1, SDMA in-cell western, HAP1 MTAP-intact; read-out: MTAP HAP1 intact IC50. The gist of the method:
(§1)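 MTAP-null vs endogenous-MTAP HAP1 isogenic cells; in-cell western SDMA readout; IC50 per line.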

Experiment [5] has as its system HAP1 MTAP-deleted cell line. Kind of experiment: SDMA in-cell western assay, HAP1 MTAP-deleted. As to conditions: for IC50: Homo sapiens, HAP1, SDMA in-cell western, HAP1 MTAP-deleted; for MTAP intact/deleted ratio: SDMA in-cell western. The experiment is classed as cell-based. A digest of the protocol: as §1
Experiment [6] deals with HAP1 MTAP-deleted cell line. Kind of experiment: Viability assay, MTAP-deleted cell line. The experiment is classed as cell-based. The conditions noted are these: Homo sapiens, read-out: HAP1 MTAP deleted viability. The text has this: Table 1 additionally indicates IC50 values in a viability assay for the MTAP-deleted cell line (column 10), indicating the effect of treatment with compound on cell survival.

[7] abbreviates: read-out: HAP 1 MTAP deleted IC50.
The mark [8] stands for this setting: IC50 ratio HAP1 MTAP-intact / HAP1 MTAP-deleted.
Setting [9] is: read-out: HAP1 MTAP deleted IC50.
Where [10] appears, read: HAP1, viability assay, MTAP-deleted cell line.
Setting [11] is: read-out: No Cofactor/ rel IC50.
Where [12] appears, read: HAP1, viability, HAP1 MTAP-deleted cell line.

T1 sequence (O14744 whole entry): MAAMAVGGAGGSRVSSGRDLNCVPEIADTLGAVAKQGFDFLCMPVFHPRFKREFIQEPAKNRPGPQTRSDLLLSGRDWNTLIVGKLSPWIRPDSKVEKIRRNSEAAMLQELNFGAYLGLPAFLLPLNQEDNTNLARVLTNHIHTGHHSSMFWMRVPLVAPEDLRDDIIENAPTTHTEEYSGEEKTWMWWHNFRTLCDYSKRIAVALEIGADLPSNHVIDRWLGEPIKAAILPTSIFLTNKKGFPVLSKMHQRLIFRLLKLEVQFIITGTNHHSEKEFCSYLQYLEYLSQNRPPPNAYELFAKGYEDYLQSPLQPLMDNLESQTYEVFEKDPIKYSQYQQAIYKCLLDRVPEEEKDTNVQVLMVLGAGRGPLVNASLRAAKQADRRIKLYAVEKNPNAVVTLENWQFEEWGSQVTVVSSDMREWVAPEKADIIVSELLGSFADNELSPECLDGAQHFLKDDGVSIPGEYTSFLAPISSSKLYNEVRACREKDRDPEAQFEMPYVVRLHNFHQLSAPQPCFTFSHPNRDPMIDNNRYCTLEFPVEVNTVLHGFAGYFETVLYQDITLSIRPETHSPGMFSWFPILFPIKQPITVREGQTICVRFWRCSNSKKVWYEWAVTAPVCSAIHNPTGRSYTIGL
T1 sequence (Q9BQA1 whole entry partner): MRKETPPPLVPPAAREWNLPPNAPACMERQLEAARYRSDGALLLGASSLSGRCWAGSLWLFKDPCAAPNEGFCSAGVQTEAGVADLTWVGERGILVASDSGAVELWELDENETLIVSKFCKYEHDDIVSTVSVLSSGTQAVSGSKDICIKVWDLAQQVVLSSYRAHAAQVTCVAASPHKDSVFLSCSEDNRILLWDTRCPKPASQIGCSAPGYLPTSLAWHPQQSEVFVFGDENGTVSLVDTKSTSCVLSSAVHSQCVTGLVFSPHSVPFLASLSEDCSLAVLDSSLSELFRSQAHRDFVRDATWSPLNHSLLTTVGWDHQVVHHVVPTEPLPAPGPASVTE

In the case of `C[C@@H]1CC[C@@H](c2ccc3[nH]c(=O)[nH]c3c2)N(C(=O)C(=O)Nc2cncc(C(N)=O)c2)C1` (racemic) [Compound 623, rac-5-[[2-[(2R,5S)-5-methyl-2-(2-oxo-1,3-dihydrobenzimidazol-5-yl)-1-piperidyl]-2-oxo-acetyl]amino]pyridine-3-carboxamide], the IC50 in experiment [1] is 50 to 500 nM; in experiment [2] (read-out: No Cofactor/rel IC50) it was 50 to 500 nM; in experiment [3], 50 to 500 nM; in experiment [4], more than 1000 nM; in experiment [5] (setting [7]), 100 to 1000 nM; in experiment [6] (HAP1, viability IC50, MTAP-deleted cell line), more than 10000 nM. The MTAP intact/deleted ratio entry in experiment [5] (setting [8]) is on record as “A (an IC50 ratio greater than or equal to 10 fold)”.

Take `C[C@@]1(F)CC[C@H](c2ccccc2)N(C(=O)C(=O)Nc2cncc(C(N)=O)c2)C1` (single isomer, unassigned) [Compound 795, 5-(2-(5-fluoro-5-methyl-2-phenylpiperidin-1-yl)-2-oxoacetamido)nicotinamide]: the IC50 was 50 to 500 nM in experiment [1]; 50 to 500 nM in experiment [2] (read-out: No Cofactor/rel IC50); less than 50 nM in experiment [3]; more than 1000 nM in experiment [4]; less than 100 nM in experiment [5] (setting [9]); 1000 to 10000 nM in experiment [6] (HAP1, viability assay, HAP1 MTAP-deleted). The MTAP intact/deleted ratio result in experiment [5] (setting [8]) is “A (an IC50 ratio greater than or equal to 10 fold)”.

Turning to `CCc1cc(NC(=O)C(=O)N2C[C@@H](C)CC[C@@H]2c2ccc3nn([C@H]4CCN(C)C4)cc3c2)cnc1N` (racemic) [Compound 1091, N-(6-Amino-5-ethyl-3-pyridyl)-2-oxo-2-[rac-(2R,5S)-5-methyl-2-[2-[rac-(3S)-1-methylpyrrolidin-3-yl]indazol-5-yl]-1-piperidyl]acetamide], the IC50 is 50 to 500 nM in experiment [1]; less than 50 nM in experiment [2] (read-out: No Cofactor/rel IC50); less than 50 nM in experiment [3]; 100 to 1000 nM in experiment [4]; less than 100 nM in experiment [5] (setting [9]); less than 1000 nM in experiment [6] (setting [10]). In addition, the MTAP intact/deleted ratio result in experiment [5] (IC50 ratio HAP1 MTAP-intact vs HAP1 MTAP-deleted) is recorded as “A (an IC50 ratio greater than or equal to 10 fold)”.

`C[C@H]1CC[C@H](c2ccc(F)c(F)c2)N(C(=O)C(=O)Nc2cncc(C(N)=O)c2)C1` (single isomer, unassigned) [Compound 475]: the IC50 in experiment [1] is 50 to 500 nM; in experiment [2] (read-out: No Cofactor/rel IC50) it was 50 to 500 nM; in experiment [3], less than 50 nM; in experiment [4], more than 1000 nM; in experiment [5] (setting [9]) it was 100 to 1000 nM; in experiment [6] (setting [10]), 1000 to 10000 nM. In experiment [5] (setting [8]), the MTAP intact/deleted ratio result was “A (an IC50 ratio greater than or equal to 10 fold)”.

For the compound `CCc1cc(NC(=O)C(=O)N2C[C@@H](C)CC[C@@H]2c2ccc3nn([C@@H]4CCCN(C)C4)cc3c2)cnc1N` (single isomer, unassigned) [Compound 1270], the IC50 was 50 to 500 nM in experiment [1]; 50 to 500 nM in experiment [2] (setting [11]); less than 50 nM in experiment [3]; 100 to 1000 nM in experiment [4]; less than 100 nM in experiment [5] (setting [7]); less than 1000 nM in experiment [6] (setting [12]). The “MTAP intact/deleted ratio” value in experiment [5] (setting [8]) is given as “A (an IC50 ratio greater than or equal to 10 fold)”.

As for `Cc1cc(NC(=O)C(=O)N2C[C@H](C)CC[C@H]2C(C)C)cnc1N` (racemic) [Compound 165, N-(6-amino-5-methyl-3-pyridyl)-2-[(2S,5R)-2-isopropyl-5-methyl-1-piperidyl]-2-oxo-acetamide], the IC50 in experiment [1] was 50 to 500 nM; in experiment [2] (setting [11]) it was 50 to 500 nM; in experiment [3], less than 50 nM; in experiment [4] it was more than 1000 nM; in experiment [5] (setting [7]), 100 to 1000 nM; in experiment [6] (setting [10]) it was more than 10000 nM. Moreover, the “MTAP intact/deleted ratio” value in experiment [5] (setting [8]) is given as “A (an IC50 ratio greater than or equal to 10 fold)”.

With `Cc1cc(NC(=O)C(=O)N2C[C@H](C)CC[C@H]2c2cc3cn[nH]c3s2)cnc1N` (single isomer, unassigned) [Compound 1120], the IC50 in experiment [1] is more than 500 nM; in experiment [2] (read-out: No Cofactor/rel IC50), more than 500 nM; in experiment [3], more than 500 nM; in experiment [4] it was more than 1000 nM; in experiment [5] (setting [9]) it was more than 1000 nM; in experiment [6] (setting [10]), more than 10000 nM.

Take `COc1ncc(NC(=O)C(=O)N2C[C@@H](C)CC[C@@H]2c2cncs2)cc1C(N)=O` (single isomer, unassigned) [Compound 516]: the IC50 was less than 50 nM in experiment [1]; less than 50 nM in experiment [2] (read-out: No Cofactor/rel IC50); less than 50 nM in experiment [3]; more than 1000 nM in experiment [4]; less than 100 nM in experiment [5] (setting [9]); less than 1000 nM in experiment [6] (setting [10]). Also, the MTAP intact/deleted ratio entry in experiment [5] (setting [8]) is recorded as “A (an IC50 ratio greater than or equal to 10 fold)”.

Regarding `NC(=O)c1cncc(NC(=O)C(=O)N2CC3CCC(C3)C2c2ccccc2)c1` (racemic) [Compound 86, rac-5-[[2-oxo-2-[(1R,4R,5S)-4-phenyl-3-azabicyclo[3.2.1]octan-3-yl]acetyl]amino]pyridine-3-carboxamide], the IC50 is 50 to 500 nM in experiment [1]; 50 to 500 nM in experiment [2] (setting [11]); 50 to 500 nM in experiment [3]; more than 1000 nM in experiment [4]; 100 to 1000 nM in experiment [5] (setting [7]); more than 10000 nM in experiment [6] (setting [10]). Besides, the “MTAP intact/deleted ratio” value in experiment [5] (setting [8]) is given as “A (an IC50 ratio greater than or equal to 10 fold)”.

For the compound `CCc1cc(NC(=O)C(=O)N2C[C@@H](C)CC[C@@H]2c2ccc3sc(C4CC(C)(C)N(C)C(C)(C)C4)nc3c2)cnc1N` [Compound 1340, N-(6-amino-5-ethylpyridin-3-yl)-2-((2R,5)-5-methyl-2-(2-(1,2,2,6,6-pentamethylpiperidin-4-yl)benzo[d]thiazol-5-yl)piperidin-1-yl)-2-oxoacetamide], the IC50 in experiment [1] was 50 to 500 nM; in experiment [2] (setting [11]), less than 50 nM; in experiment [3] it was less than 50 nM; in experiment [4], less than 100 nM; in experiment [5] (setting [7]), less than 100 nM; in experiment [6] (setting [12]), less than 1000 nM. The “MTAP intact/deleted ratio” value in experiment [5] (setting [8]) was “A (an IC50 ratio greater than or equal to 10 fold)”.

Turning to `C[C@H]1CC[C@H](c2ccc3[nH]ncc3c2)N(C(=O)C(=O)Nc2cnc(N)c(C3CC3)c2)C1` (single isomer, unassigned) [Compound 1251], the IC50 in experiment [1] was less than 50 nM; in experiment [2] (setting [11]), less than 50 nM; in experiment [3], less than 50 nM; in experiment [4], less than 100 nM; in experiment [5] (setting [7]) it was less than 100 nM; in experiment [6] (setting [12]) it was less than 1000 nM. Moreover, the “MTAP intact/deleted ratio” value in experiment [5] (setting [8]) is “A (an IC50 ratio greater than or equal to 10 fold)”.

As for `CCc1cc(NC(=O)C(=O)N2C[C@@H](C)[C@@H](OC)C[C@@H]2c2ccc3scnc3c2)cnc1N` (single isomer, unassigned) [Compound 1286], the IC50 in experiment [1] was 50 to 500 nM; in experiment [2] (setting [11]), less than 50 nM; in experiment [3] it was less than 50 nM; in experiment [4], 100 to 1000 nM; in experiment [5] (setting [7]) it was less than 100 nM; in experiment [6] (setting [12]), less than 1000 nM. In addition, the “MTAP intact/deleted ratio” value in experiment [5] (setting [8]) is “A (an IC50 ratio greater than or equal to 10 fold)”.

Turning to `CC1(C)CCC[C@@H]2CN(C(=O)C(=O)Nc3cncc(C(N)=O)c3)CC[C@H]21` (single isomer, unassigned) [Compound 193], the IC50 was 50 to 500 nM in experiment [1]; 50 to 500 nM in experiment [2] (read-out: No Cofactor/rel IC50); less than 50 nM in experiment [3]; more than 1000 nM in experiment [4]; less than 100 nM in experiment [5] (setting [9]); 1000 to 10000 nM in experiment [6] (setting [10]). In experiment [5] (setting [8]), the MTAP intact/deleted ratio result is “A (an IC50 ratio greater than or equal to 10 fold)”.
